Experimental data as given in paper PMC6718946 (Toxicology Reports, 2019).
Values joined by “and” are separate entries in the source; they are usually repeats but may differ in a detail not shown here. Equal entries are not always repeated. Where two headings read alike, the source gives them in different places.

Key:
[1] = target: acetylcholinesterase (AChE) (Electrophorus electricus, UniProt O42275); conditions: for IC50: estimated from Fig. 1
Artemia salina [2] = experiment: Toxicology assay on Artemia salina model; conditions: for Mortality of A. salina: 24 h
Artemia salina [3] = conditions: in vivo; cited from earlier work
AChE [4] = conditions: cited from earlier work
AChE [5] = conditions: cited from earlier work; remark: listed apart in the source
AChE [6] = conditions: cited from earlier work; remark: listed apart in the source

Sequence of acetylcholinesterase (AChE) (O42275 24-633): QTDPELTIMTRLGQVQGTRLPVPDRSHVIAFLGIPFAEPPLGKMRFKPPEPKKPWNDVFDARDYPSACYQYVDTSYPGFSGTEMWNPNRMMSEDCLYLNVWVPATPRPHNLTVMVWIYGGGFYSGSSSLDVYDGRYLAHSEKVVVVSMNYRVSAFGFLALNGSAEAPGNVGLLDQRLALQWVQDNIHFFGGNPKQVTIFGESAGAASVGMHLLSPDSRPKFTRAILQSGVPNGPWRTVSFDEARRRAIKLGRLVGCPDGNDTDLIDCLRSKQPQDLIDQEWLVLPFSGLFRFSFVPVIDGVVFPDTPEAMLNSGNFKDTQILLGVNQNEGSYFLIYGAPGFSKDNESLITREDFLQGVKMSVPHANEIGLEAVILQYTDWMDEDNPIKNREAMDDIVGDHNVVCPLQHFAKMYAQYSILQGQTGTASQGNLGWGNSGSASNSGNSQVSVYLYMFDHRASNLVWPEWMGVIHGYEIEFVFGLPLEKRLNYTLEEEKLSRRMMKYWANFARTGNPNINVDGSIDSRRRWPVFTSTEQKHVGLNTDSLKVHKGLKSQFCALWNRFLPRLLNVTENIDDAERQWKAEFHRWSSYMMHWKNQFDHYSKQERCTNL

1-Hydroxyquinopimaric acid [Compound U-201]
Inhibition mechanism ([1]; Lineweaver-Burk analysis): Competitive

C=CCNC(=O)N1C[C@H]2C[C@H](C1)c1cccc(=O)n1C2 [Compound A-63, N-Allylcytisine-12-carbamide]
Inhibition mechanism ([1]; Lineweaver-Burk analysis): mixed
Inhibition mechanism ([1]; Lineweaver-Burk analysis, listed as A63): Mixed inhibition
IC50 ([1]; 30 °C, pH 8.0, 1.25% DMSO): ~1470 µM and 1470 µM
IC50 ([1]; expressed in g L^−1): ≈ 0.4 g L^−1
IC50 ([1]; expressed in ppm): 400 ppm
α´ (effect on Vmax) ([1]; mixed inhibition parameter): 0.05
Mortality of A. salina (Artemia salina [2]; at 1000 ppm): 3%
Mortality of A. salina (Artemia salina [2]; at 2000 ppm): 3%
Toxicity classification according to Artemia salina test (Artemia salina [2]; class by percent mortality of nauplii): non-toxic (0–10% non-toxic compound)
Effect on A. salina viability (Artemia salina [2]; concentration less than 1000 ppm): did not affect
Effect on A. salina viability (Artemia salina [2]; concentration less than 2000 ppm): not affected

O=c1cccc2n1CC1CC2CN(C(=S)NC23CC4CC(CC(C4)C2)C3)C1 (centres unmarked) [Compound U-12, N-1-Adamantylcytisine-12-thiocarbamide]
Inhibition mechanism ([1]; Lineweaver-Burk analysis): Uncompetitive
IC50 ([1]; 30 °C, pH 8.0, 1.25% DMSO): ~3390 µM and 3390 µM
IC50 ([1]; expressed in g L^−1): ≈ 1.4 g L^−1
IC50 ([1]; expressed in ppm): 1400 ppm
Ki ([1]; read-out: Ki (inhibition constant), Lineweaver-Burk analysis): 70 µM

CNC(=O)Oc1ccc2c(c1)[C@]1(C)CCN(C)[C@@H]1N2C [Eserine]
Effect on larvae (Artemia salina [3]): larval paralysis
Inhibition of AChE activity in Artemia salina (Artemia salina [3]): strongly inhibit

C[n+]1c2ccccc2cc2ccccc21 [N-methylacridinium]
Inhibition mechanism (AChE [4]): competitive

C=C(C)C1CC=C(C)C(=O)C1 (centres unmarked) [S-carvone]
Inhibition mechanism (AChE [5]): mixed AChE inhibition

CC12CCC(CC1=O)C2(C)C (centres unmarked) [camphor]
Inhibition mechanism (AChE [5]): mixed AChE inhibition

CC[N+](C)(C)c1cccc(O)c1 [edrophonium]
Inhibition mechanism (AChE [4]): competitive

C=CCc1ccc(OC)cc1 [estragole]
Inhibition mechanism (AChE [5]): mixed AChE inhibition

COc1ccc2c3c1O[C@H]1C[C@@H](O)C=C[C@@]31CCN(C)C2 [galanthamine]
Inhibition mechanism (AChE [6]): competitive

Cytisine-12-carbamide [Compound A-36]
Inhibition mechanism ([1]; Lineweaver-Burk analysis): Competitive
